Measured values: patent US20260256859A1, “COMPOSITION FOR PREVENTING, AMELIORATING, OR TREATING TUBERCULOSIS COMPRISING EXTRACT OF PHILADELPHUS SP. PLANT AS ACTIVE INGREDIENT” (priority 2023, published 2026)

How the values were obtained:
[1] = system: Mycobacterium tuberculosis H37Rv; test: MIC and FIC of Philadelphus tenuifolius leaf extract alone or combined with an anti-tuberculosis agent in Rv-infected BMDM; assay type: cell-based; conditions: Rv-infected mouse BMDM, 48 hours; for MIC combination, RIF (antibiotic component): MIC of the antibiotic when combined with Philadelphus tenuifolius leaf extract; for MIC alone, Antibiotics: MIC = lowest concentration inhibiting more than 99% of bacterial growth
[2] = system: Mycobacterium tuberculosis H37Rv; test: Intracellular M. tuberculosis CFU count in infected bone marrow-derived macrophages after treatment with extract or anti-tuberculosis agent; assay type: cell-based; conditions: C57BL/6 mouse BMDM, H37Rv MOI=1, anti-tuberculosis agent 100 ng/mL, 48 hours; FIG. 2

SMILES | MIC combination, RIF (antibiotic component) [1] [mg/L] | MIC alone, Antibiotics [1] [mg/L] | number of intracellular M. tuberculosis in mouse bone marrow-derived macrophages (CFU) vs infection control (Rv) [2]
CO[C@H]1/C=C/O[C@@]2(C)Oc3c(C)c(O)c4c(O)c(c(/C=N/N5CCN(C)CC5)c(O)c4c3C2=O)NC(=O)/C(C)=C\C=C\[C@H](C)[C@H](O)[C@@H](C)[C@@H](O)[C@@H](C)[C@H](OC(C)=O)[C@@H]1C [rifampicin] | 0.03 | 0.1 | 
NNC(=O)c1ccncc1 [isoniazid] | 0.03 | 0.1 | statistically significantly reduced
CC[C@@H](CO)NCCN[C@@H](CC)CO [ethambutol] | 0.3 | 4 | statistically significantly reduced
